Consider four molecules from US5274098A, “Amidinophenylalanine derivatives, process for their preparation, their use and compositions containing them” (Behringwerke Aktiengesellschaft, priority 1991, dated 1993).

SMILES strings stand for the structures. pIC50, pKi: −log10 of the molar value.

In assay [1] the target is T1, human thrombin (Homo sapiens, UniProt P00734).
T1 construct: human thrombin
Put plainly: IC50 value of the thrombin inhibition (Chromozym TH, pNA release at 405 nm). The settings on record: 0.1M tris-HCl/0.15 M NaCl pH 8.2, 1 h preincubation, substrate Chromozym TH 5×10^-5 M. The assay is classed as biochemical. The procedure:
Determination of the IC50 value of the thrombin inhibition:
The compounds were incubated with human thrombin in 0.1M tris-HCl buffer/0.15 M NaCl pH 8.2 in increasing concentrations.

The target in assay [2] is T1, human thrombin. Description: KI value for thrombin (Lineweaver and Burk, Chromozym TH). In kind it is biochemical. As to conditions: inhibitor conc. approx. IC50, Chromozym TH 0.7-45×10^-5 mol/l, read-out: Thrombin inhibition KI. The procedure: Determination of the KI value for thrombin:
The KI values for the compounds investigated were determined using the abovementioned thrombin solution. To do this, thrombin was incubated with a concentration of inhibitor which approximately corresponded to the IC50 value determined in the abovementioned test.

For assay [3], the system named is thrombin. Put plainly: Activity with respect to inhibition of thrombin / antithrombotic activity, general statements. In kind it is biochemical. The settings on record: relative to the glycine compound. From the text: The inhibitors according to the invention are examined according to various criteria to assess their activity, preferably these are the determination of the Ki value, the IC50 value or the partial thromboplastin time (PTT) in vivo and in vitro.

The test system of assay [4] is thrombin. As to conditions: cited from earlier work.

The pIC50 is the IC50 on a negative log10 scale, so that one unit is a factor of ten. A high value points to a small IC50. A word on the pKi: it is the Ki on a negative log10 scale, so that one unit is a factor of ten. Take `N=C(N)c1ccc(C[C@@H](NC(=O)NNS(=O)(=O)c2ccc3ccccc3c2)C(=O)N2CCCCC2)cc1` [Nas--AGly--Aph--Pip, Beta-naphthylsulfonyl-azaglycyl-D-p-amidinophenylalanylpiperidide]: in assay [1], the pIC50 is 8.89. The pKi in assay [2] is 8.59. Besides, in assay [3], the “exceeds the activity of the glycine compound by a factor” value amounted to 5.

In the case of `Cc1c(C)c(S(=O)(=O)NNC(=O)N[C@H](Cc2ccc(C(=N)N)cc2)C(=O)N2CCCCC2)c(C)c2c1OC(C)(C)CC2` [Pmc--AGly--Aph--Pip, Pmc-Azaglycyl-D-p-amidinophenylalanylpiperidide], in assay [2], the pKi was 10.04.

With `CC1CNc2c(cccc2S(=O)(=O)N[C@@H](CCCNC(=N)N)C(=O)N2CC[C@@H](C)C[C@@H]2C(=O)O)C1` (stereo partly shown) [MD 805, monohydrate], the “type of thrombin inhibition (prior art, in words)” value in assay [4] is recorded as “competitive specific thrombin inhibitor”.

`Cc1c(C)c(S(=O)(=O)NCC(=O)NC(Cc2ccc(C(=N)N)cc2)C(=O)N2CCCCC2)c(C)c2c1OC(C)(C)CC2` (stereo not shown) [Pmc--Gly--Aph--Pip, reference compound]: in assay [1], the pIC50 was 8.85. Besides, the pKi in assay [2] is 8.89.
